Tests used:
Type in all cases: in vivo
[1] = tested on: Tenebrio molitor pupae; test: topical application to Tenebrio molitor pupae, maturation inhibition
Excerpt: (§1) The compounds were applied in acetone solution at concentrations of 10 percent, 1 percent and 0.5 percent. One microliter of the acetone solution was applied to each test specimen. Ten test specimens were employed for each insect at each concentration and compared to ten acetone controls and ten zero controls. Approximately eight to ten days were required before results could be ascertained.
(§2) The insect species used in the test were Tenebrio molitor pupae; milkweed bug, fourth nymphal stage; wax moth, fifth larval stage; and Mexican bean beetle, fourth larval stage. At the completion of the test, each specimen was examined for the degree of juvenile and adult characteristics. The milkweed bug, wax moth, and Mexican bean beetle were assigned a numerical rating of 0 to 3 with 0 indicating no effect and 3 indicating the maximum effect or least adult development. Because of differences in morphology the Tenebrio rating scale was 0 to 4. In all cases a rating of 2 or higher means that the insect is incapable of reproduction. The number of specimens in each rating classification are given. In any test were the total of specimens reported is less than 10, those unreported died in some metamorphic stage. Such deaths indicate control, since the dead insects are not capable of reproducing.

[2] = tested on: milkweed bug; test: topical application to milkweed bug, fourth nymphal stage, maturation inhibition; conditions: rating scale 0-3
Excerpt: as §1, §2

[3] = tested on: wax moth; test: topical application to wax moth, fifth larval stage, maturation inhibition
Excerpt: as §1, §2

[4] = tested on: Mexican bean beetle; test: topical application to Mexican bean beetle, fourth larval stage, maturation inhibition
Excerpt: as §1, §2

[5] = 10% in acetone, 1 microliter topical, rating scale 0 (no effect) to 4 (maximum)
[6] = 10% in acetone, 1 microliter topical, rating scale 0 (no effect) to 3 (maximum)

SMILES | number of specimens in rating 0 ([1]; 0.5%, rating scale 0-4) [specimens] | number of specimens in rating 0 ([1]; 1%, rating scale 0-4) [specimens] | number of specimens in rating 0 [1, 5] [specimens] | number of specimens in rating 1 ([1]; 10%, rating scale 0-4) [specimens] | number of specimens in rating 3 ([1]; 10%, rating scale 0-4) [specimens] | number of specimens in rating 3 ([2]; 0.5%) [specimens] | number of specimens in rating 3 ([2]; 1%) [specimens] | number of specimens in rating 3 ([2]; 10%) [specimens] | number of specimens in rating 0 ([3]; 0.5%, rating scale 0-3) [specimens] | number of specimens in rating 0 ([3]; 1%, rating scale 0-3) [specimens] | number of specimens in rating 0 [3, 6] [specimens] | number of specimens in rating 0 ([4]; 0.5%, rating scale 0-3) [specimens] | number of specimens in rating 0 ([4]; 1%, rating scale 0-3) [specimens] | number of specimens in rating 3 ([4]; 1%, rating scale 0-3) [specimens] | number of specimens in rating 3 ([4]; 10%, rating scale 0-3) [specimens] | number of specimens in rating 4 ([1]; 10%, rating scale 0-4) [specimens] | number of specimens in rating 0 ([2]; 0.5%) [specimens] | number of specimens in rating 0 ([2]; 1%) [specimens] | number of specimens in rating 2 ([2]; 1%) [specimens] | number of specimens in rating 0 [4, 6] [specimens] | other results
CC(C)=CCC/C(C)=C/CCc1cccc(Cl)c1 [trans-2,6-dimethyl-9-(3-chlorophenyl)-2,6-nonadiene] | 10 | 10 | 2 | 1 | 6 | 10 | 10 | 10 | 10 | 7 | 7 | 10 | 9 | 1 | 10 | – | – | – | – | – | number of specimens in rating 2 ([1]; 10%, rating scale 0-4): 1 specimens; number of specimens in rating 1 ([3]; 1%, rating scale 0-3): 1 specimens; number of specimens in rating 2 ([3]; 1%, rating scale 0-3): 2 specimens; number of specimens in rating 1 ([3]; 10%, rating scale 0-3): 3 specimens
CCC(C)=CCCC(=CCCc1ccc2c(c1)OCO2)CC [3-METHYL-7-ETHYL-10-(3,4-METHYLENEDIOXYPHENYL)-3,7-DECADIENE] | – | – | – | – | – | – | 1 | 10 | 9 | 10 | 10 | – | – | 10 | 10 | 10 | 9 | 7 | 2 | – | number of specimens in rating 3 ([1]; 0.5%, rating scale 0-4): 2 specimens; number of specimens in rating 4 ([1]; 0.5%, rating scale 0-4): 8 specimens; number of specimens in rating 3 ([1]; 1%, rating scale 0-4): 1 specimens; number of specimens in rating 4 ([1]; 1%, rating scale 0-4): 9 specimens; number of specimens in rating 1 ([2]; 0.5%): 1 specimens; number of specimens in rating 2 ([4]; 0.5%, rating scale 0-3): 1 specimens; number of specimens in rating 3 ([4]; 0.5%, rating scale 0-3): 9 specimens
CCOc1cccc(CCC=C(C)CCC=C(C)C)c1 [9-(3-ethoxyphenyl)-2,6-dimethyl-2,6nonadiene] | 10 | 8 | – | 1 | 5 | – | 2 | 7 | 10 | 10 | 10 | 10 | 8 | – | 7 | 4 | 3 | – | 7 | 1 | number of specimens in rating 1 ([1]; 1%, rating scale 0-4): 2 specimens; number of specimens in rating 1 ([2]; 0.5%): 1 specimens; number of specimens in rating 2 ([2]; 0.5%): 2 specimens; number of specimens in rating 1 ([4]; 1%, rating scale 0-3): 2 specimens; number of specimens in rating 2 ([4]; 10%, rating scale 0-3): 2 specimens
CC(=CCCc1ccc2c(c1)OCO2)CCCC(C)C [2,6-DIMETHYL-9-(3,4-METHYLENEDIOXYPHENYL)-6-NONENE] | 3 | – | 1 | – | – | 3 | 8 | 7 | 9 | 9 | 10 | – | – | 10 | 10 | 9 | 5 | 1 | – | – | number of specimens in rating 1 ([1]; 0.5%, rating scale 0-4): 1 specimens; number of specimens in rating 2 ([1]; 0.5%, rating scale 0-4): 2 specimens; number of specimens in rating 3 ([1]; 0.5%, rating scale 0-4): 2 specimens; number of specimens in rating 4 ([1]; 0.5%, rating scale 0-4): 2 specimens; number of specimens in rating 2 ([1]; 1%, rating scale 0-4): 4 specimens; number of specimens in rating 4 ([1]; 1%, rating scale 0-4): 6 specimens; number of specimens in rating 1 ([2]; 0.5%): 1 specimens; number of specimens in rating 1 ([3]; 0.5%, rating scale 0-3): 1 specimens; number of specimens in rating 1 ([3]; 1%, rating scale 0-3): 1 specimens; number of specimens in rating 1 ([4]; 0.5%, rating scale 0-3): 1 specimens; number of specimens in rating 2 ([4]; 0.5%, rating scale 0-3): 7 specimens; number of specimens in rating 3 ([4]; 0.5%, rating scale 0-3): 2 specimens
CCOC(=O)c1ccc(CC/C=C(\C)CCC=C(C)C)cc1 [ethyl trans-4-(4,8-dimethyl-3,7-nonadienyl)benzoate] | 9 | 10 | 3 | 5 | 1 | 6 | 10 | 10 | 10 | 10 | 10 | 9 | 10 | – | – | – | 1 | – | – | 8 | number of specimens in rating 2 ([1]; 10%, rating scale 0-4): 1 specimens; number of specimens in rating 2 ([2]; 0.5%): 3 specimens; number of specimens in rating 2 ([4]; 10%, rating scale 0-3): 2 specimens
CC(C)=CCC/C(C)=C/CCc1ccc(N(C)C)cc1 [trans-4-(4,8-DIMETHYL-3,7-NONADIENYL)-N,N-DIMETYLANILINE] | 10 | 2 | – | – | – | – | 2 | 10 | 10 | 10 | 10 | 10 | 9 | 1 | 10 | 10 | 10 | 5 | 1 | – | number of specimens in rating 1 ([1]; 1%, rating scale 0-4): 2 specimens; number of specimens in rating 2 ([1]; 1%, rating scale 0-4): 1 specimens; number of specimens in rating 3 ([1]; 1%, rating scale 0-4): 4 specimens; number of specimens in rating 1 ([2]; 1%): 1 specimens
CC(C)=CCC/C(C)=C/CCc1c(Cl)cccc1Cl [trans-9-(2,6-DICHLOROPHENYL)-2,6-DIMETHYL-2,6-NONADIENE] | 10 | 10 | 9 | – | – | – | – | 10 | 10 | 10 | 10 | 10 | 9 | – | – | – | 10 | 8 | – | 8 | number of specimens in rating 1 ([4]; 1%, rating scale 0-3): 1 specimens; number of specimens in rating 1 ([4]; 10%, rating scale 0-3): 2 specimens
COc1ccc(CCC=C(C)CCC=C(C)C)cc1 [2,6-DIMETHYL-9-(4-METHOXYPHENYL)-2,6-NONADIENE] | 1 | – | – | – | – | – | – | – | 10 | 9 | 10 | 10 | 10 | – | – | – | 10 | 5 | – | 6 | number of specimens in rating 1 ([1]; 0.5%, rating scale 0-4): 6 specimens; number of specimens in rating 2 ([1]; 0.5%, rating scale 0-4): 3 specimens; number of specimens in rating 1 ([1]; 1%, rating scale 0-4): 1 specimens; number of specimens in rating 2 ([1]; 1%, rating scale 0-4): 2 specimens; number of specimens in rating 3 ([1]; 1%, rating scale 0-4): 5 specimens; number of specimens in rating 4 ([1]; 1%, rating scale 0-4): 2 specimens; number of specimens in rating 1 ([2]; 1%): 5 specimens; number of specimens in rating 1 ([4]; 10%, rating scale 0-3): 1 specimens; number of specimens in rating 2 ([4]; 10%, rating scale 0-3): 3 specimens
CC(C)=CCC/C(C)=C/CCc1ccc(F)cc1 [trans-9-(4-FLUOROPHENYL)-2,6-DIMETHYL-2,6-NONADIENE] | 10 | 10 | – | – | – | 7 | 8 | 10 | 10 | 9 | 10 | – | – | 10 | 10 | 10 | – | – | 2 | – | number of specimens in rating 2 ([2]; 0.5%): 3 specimens; number of specimens in rating 3 ([4]; 0.5%, rating scale 0-3): 10 specimens
